This experiment relates to MDA-MB-435 TRAIL sensitization, ATPlite luminescence, 24 h. Kind of experiment: PubChem AID 2619.

The record followed here is PubChem BioAssay AID2619 (Sanford-Burnham Center for Chemical Genomics, 2010).

Molecules are shown by their SMILES.

Turning to `CSc1nc(-c2ccc(C)cc2)nc(C(Cl)Cl)n1`, the cytotoxicity with TRAIL (at 10 µM (top of the series)) was 82%. For the same compound, the cytotoxicity (compound alone without TRAIL, at 10 µM, stronger effect = higher value) was 1%.
